Source: patent publication US20170107203A1, “HETEROCYCLIC INHIBITORS OF THE SODIUM CHANNEL” (EPIRUS BIOPHARMACEUTICALS, INC., priority 2014, published 2017)

Key:
human Nav1.7 = molecular target: T1, human Nav1.7 (Homo sapiens, UniProt Q15858); test: Assessment of Nav1.7 activity on PatchXpress (voltage dependence / slow inactivation parameters); format: cell-based; details: compound at 10 μM, relative to 0.2% DMSO vehicle control; for hNav1.7: Reduction in current at 20 mV (normalized data) Delta Ratio: before/after 30 sec conditioning pulse at 20 mV; for hNav1.7: Shift in voltage dependence of inactivation (mV) Delta Vhalf: PatchXpress
T1 construct: expressed in transfected cells
Outline: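 HEK293F cells stably co-expressing hNav1.7 and β1 were recorded by automated patch clamp in TEA-based external solution (50 mM NaCl, pH 7.4) with CsF internal solution (pH 7.2). A variable conditioning prepulse inactivated channels, followed by a brief hyperpolarizing step and a depolarizing test pulse. Compounds at 10 μM were compared with 0.2% DMSO vehicle across four parameters.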

hNav1.7 [1] = molecular target: T2, hNav1.7 (Homo sapiens, UniProt Q15858); test: Nav1.7 potency, manual patch clamp; format: cell-based; details: manual patchclamp
T2 construct: expressed in transfected cells
Experimental: (§1) The generation of a HEK 293F cell line stably expressing human Nav1.7/Navp1 was achieved by co-transfecting human SCN9A and human SCN1B cDNAs, subcloned into plasmid vectors, utilizing standard transfection techniques. Clones were selected using appropriate selection agents (0.3 mg/mL Zeocin and 0.8 mg/mL Geneticin) and maintained in Dulbecco's Modified Eagle medium, 10% fetal bovine serum, 1% non-essential amino acids to ˜80% confluence at 37° C. in a humidified incubator with 95% atmosphere and 5% CO2.
(§2) In some cases, the potency of compounds was measured using either the Patchliner automated patch clamp platform (Nanion) or manual patch clamp techniques. Both approaches allowed the compounds to be characterized based upon the ability of a compound to modulate use- and/or state-dependence. The potency data is tabulated in Table 3 and is represented by eight data fields. The first four fields represent potency data measured with the Patchliner automated platform under varying use- and state-dependent electrophysiology protocols similar to the Patch express protocols detailed above. The first data column describes the potency of compounds when the Nav1.7 channel is being repetitively activated at a 7 Hz hyperpolarization frequency (Table 3: hNav1.7: IC50 of inward current block at 7 Hz, Automated patchclamp). The second data column represents the potency at which 50% of the initial hyperpolarization pulse is inhibited by the compounds (Table 3: hNav1.7: IC50 of P1 block, Automated patchclamp). The third data column details the potency of compounds in their ability to block 50% of Nav1.7 channels when these channels are induced into the slow inactivated state (Table 3: hNav1.7: IC50 of slow inactivation block, Automated patchclamp). […] The next three data fields describe the data generated from manual patchclamp electrophysiology measurements using similar methods to those employed for automated patchclamp studies. […] The last column characterizes the state-dependence of compound inhibition. Compounds that maintain the greatest potency for the slow inactivated state over fast inactivated or tonic inhibition at 0.25 Hz are characterized as “state dependent, blocker of slow inactivation”.

hNav1.7 [2] = molecular target: T2, hNav1.7; test: Nav1.7 potency, Patchliner automated patch clamp; format: cell-based; details: automated patchclamp
Experimental: as §1, §2

male Sprague-Dawley rat = test: Formalin test in rats (automated flinch detection); format: in vivo; details: 100 mg/kg SC 1 hour prior to formalin
Experimental: The formalin test in rats was performed as previously described (McNamara, 2007. Proc. Natl. Acad. Sci., vol 104, page 13525) using an automated flinch-detecting system (T. Yaksh, University of California at San Diego, La Jolla, Calif.). On the day of testing, a small metal band (0.5 g) was loosely placed around the right hind paw of a male Sprague-Dawley rat (average weight, ˜250 g). The rats were allowed to acclimate to a Plexiglas chamber for at least 30 min before testing. Formalin was then injected (50 μl of 2.5% formalin, diluted in saline) into the dorsal surface of the right hind paw of the rat, and the animal was put into a chamber of the automated formalin apparatus where movement of the formalin-injected paw was recorded. The number of paw flinches per minute was tallied for the next 60 minutes. The time interval phases were defined as follows: Phase I (0-9 mins), Phase II (10-60 mins), Phase IIA (10-40 mins), and Phase IIB (41-60 mins). The following compounds were administered 1 hour prior to formalin administration. Compound 52 from Table 1 was administered by oral gavage in 4% DMSO, 10% Solutol, 86% H2O. Gabapentin was administered subcutaneously in 0.9% NaCl (aq).

[3] = slow inactivated state, read-out: Nav1.7 IC50 SLOW INACTIVATION BLOCK (nM) (Manual Patchclamp)
[4] = slow inactivated state, read-out: Nav1.7 IC50 SLOW INACTIVATION BLOCK (nM) (Automated Patchclamp)

T2 sequence (Q15858 whole entry): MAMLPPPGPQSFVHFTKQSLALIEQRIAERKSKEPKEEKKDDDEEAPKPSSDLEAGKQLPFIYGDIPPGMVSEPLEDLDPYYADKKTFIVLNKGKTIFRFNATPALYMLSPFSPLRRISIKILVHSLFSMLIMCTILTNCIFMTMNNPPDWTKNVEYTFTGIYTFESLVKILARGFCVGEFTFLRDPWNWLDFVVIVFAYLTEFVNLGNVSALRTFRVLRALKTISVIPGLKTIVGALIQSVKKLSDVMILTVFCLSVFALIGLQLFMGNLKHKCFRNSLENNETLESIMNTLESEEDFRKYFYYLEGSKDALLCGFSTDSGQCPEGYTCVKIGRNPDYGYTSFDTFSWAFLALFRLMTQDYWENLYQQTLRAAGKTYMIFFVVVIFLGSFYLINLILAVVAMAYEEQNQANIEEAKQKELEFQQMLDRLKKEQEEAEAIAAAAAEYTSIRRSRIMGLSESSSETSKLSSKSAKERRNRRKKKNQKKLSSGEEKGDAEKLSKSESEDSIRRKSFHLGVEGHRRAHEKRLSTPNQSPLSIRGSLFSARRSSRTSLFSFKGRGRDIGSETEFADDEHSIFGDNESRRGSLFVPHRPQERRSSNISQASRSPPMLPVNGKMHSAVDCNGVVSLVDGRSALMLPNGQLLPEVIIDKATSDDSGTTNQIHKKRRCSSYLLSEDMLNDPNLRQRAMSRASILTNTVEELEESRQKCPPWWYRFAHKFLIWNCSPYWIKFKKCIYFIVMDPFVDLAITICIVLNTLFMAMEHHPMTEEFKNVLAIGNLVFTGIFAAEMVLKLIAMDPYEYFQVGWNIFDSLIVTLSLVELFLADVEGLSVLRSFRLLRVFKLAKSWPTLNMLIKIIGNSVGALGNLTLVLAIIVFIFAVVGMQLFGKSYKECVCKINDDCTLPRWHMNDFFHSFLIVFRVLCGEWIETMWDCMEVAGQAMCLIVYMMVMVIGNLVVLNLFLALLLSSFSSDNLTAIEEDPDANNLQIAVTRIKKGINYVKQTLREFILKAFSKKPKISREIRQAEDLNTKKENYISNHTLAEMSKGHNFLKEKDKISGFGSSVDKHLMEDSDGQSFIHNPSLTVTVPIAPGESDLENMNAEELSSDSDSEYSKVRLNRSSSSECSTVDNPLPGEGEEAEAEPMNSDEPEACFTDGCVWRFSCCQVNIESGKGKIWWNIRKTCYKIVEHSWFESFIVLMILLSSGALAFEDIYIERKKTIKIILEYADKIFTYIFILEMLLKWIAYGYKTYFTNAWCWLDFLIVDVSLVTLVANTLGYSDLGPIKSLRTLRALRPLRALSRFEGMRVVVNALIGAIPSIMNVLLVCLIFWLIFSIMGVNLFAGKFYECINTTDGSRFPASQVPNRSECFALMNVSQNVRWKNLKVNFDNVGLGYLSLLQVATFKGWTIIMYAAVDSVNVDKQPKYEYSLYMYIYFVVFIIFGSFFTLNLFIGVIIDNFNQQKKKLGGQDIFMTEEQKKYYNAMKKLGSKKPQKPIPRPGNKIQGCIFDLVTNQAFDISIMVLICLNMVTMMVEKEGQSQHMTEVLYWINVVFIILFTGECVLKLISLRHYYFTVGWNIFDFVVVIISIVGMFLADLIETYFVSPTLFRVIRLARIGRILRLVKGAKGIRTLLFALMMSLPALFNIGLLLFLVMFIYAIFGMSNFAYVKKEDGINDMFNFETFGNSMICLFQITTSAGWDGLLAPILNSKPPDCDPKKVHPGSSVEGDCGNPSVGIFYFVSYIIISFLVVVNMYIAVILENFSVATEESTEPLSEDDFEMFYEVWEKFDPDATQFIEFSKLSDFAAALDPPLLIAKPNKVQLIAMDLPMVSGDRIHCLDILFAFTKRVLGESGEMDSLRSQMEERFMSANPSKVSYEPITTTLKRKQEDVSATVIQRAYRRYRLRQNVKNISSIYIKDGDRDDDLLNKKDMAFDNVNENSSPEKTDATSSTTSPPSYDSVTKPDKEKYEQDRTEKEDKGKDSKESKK
T2 sequence (Q07699 19-218 partner): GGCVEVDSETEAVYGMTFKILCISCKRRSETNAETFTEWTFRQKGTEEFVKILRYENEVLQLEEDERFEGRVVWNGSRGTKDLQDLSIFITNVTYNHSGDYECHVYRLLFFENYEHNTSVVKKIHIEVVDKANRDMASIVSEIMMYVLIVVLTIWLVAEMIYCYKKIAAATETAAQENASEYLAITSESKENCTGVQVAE
T1 sequence (Q15858 whole entry): as the sequence (Q15858 whole entry) above
T1 sequence (Q07699 19-218 partner): as the sequence (Q07699 19-218 partner) above

Structure (SMILES) | hNav1.7: Reduction in current at 20 mV (normalized data) Delta Ratio (human Nav1.7) | hNav1.7: Voltage dependence of activation (mV) VDEP (human Nav1.7) | hNav1.7: Voltage dependence of fast inactivation (mV) VDEP (human Nav1.7) | hNav1.7: Shift in voltage dependence of inactivation (mV) Delta Vhalf (human Nav1.7) | IC50 (hNav1.7 [1]; 7 Hz, read-out: Nav1.7 IC50 INWARD CURRENT BLOCK (nM) (7 Hz, Manual Patchclamp)) | IC50 (hNav1.7 [1]; [3]) | IC50 (hNav1.7 [2]; 0.25 Hz, read-out: Nav1.7 IC50 INWARD CURRENT BLOCK (nM) (0.25 Hz, Automated Patchclamp)) | IC50 (hNav1.7 [2]; 7 Hz, read-out: Nav1.7 IC50 INWARD CURRENT BLOCK (nM) (7 Hz, Automated Patchclamp)) | IC50 (hNav1.7 [2]; [4]) | IC50 (hNav1.7 [2]; initial pulse (P1), read-out: Nav1.7 IC50 P1 BLOCK (nM) (Automated Patchclamp)) | Phase 1 (paw flinches) (male Sprague-Dawley rat; Phase I (0-9 mins)) | Total Phase 2 (paw flinches) (male Sprague-Dawley rat; Phase II (10-60 mins)) | Phase 2a (paw flinches) (male Sprague-Dawley rat; Phase IIA (10-40 mins)) | Phase 2b (paw flinches) (male Sprague-Dawley rat; Phase IIB (41-60 mins))
CN[C@H](CC(C)C)C(=O)NCCOc1cc(F)cc(C(F)(F)F)c1 [Compound 16, (R)-N-(2-(3-fluoro-5-(trifluoromethyl)phenoxy)ethyl)-4-methyl-2-(methylamino)pentanamide] | −0.11 | −2.80 mV | −2.60 mV | −14.70 mV | 23200 nM | 3500 nM | 15000 nM | 9620 nM | 8120 nM |  |  |  |  | 
CC(C)C[C@@H](N)C(=O)NC(COc1cc(C(F)(F)F)cc(C(F)(F)F)c1)c1ccccc1 (stereo partly drawn) [Compound 38, (2R)-2-amino-N-(2-(3,5-bis(trifluoromethyl)phenoxy)-1-phenylethyl)-4-methylpentanamide] | −0.34 | −11.5 mV | −15.3 mV | −33.7 mV |  | 436 nM |  |  | 5320 nM | 10300 nM |  |  |  | 
N[C@@H](c1ccc(Cl)cc1)c1nc2cc(C(F)(F)F)cc(C(F)(F)F)c2[nH]1 [Compound 54, (S)-(4,6-bis(trifluoromethyl)-1H-benzo[d]imidazol-2-yl)(4-chlorophenyl)methanamine] | −0.26 | −10 mV | −8.6 mV | −27.4 mV |  | 312 nM |  |  | 2890 nM |  |  |  |  | 
NCC1(CC(=O)O)CCCCC1 [Gabapentin] |  |  |  |  |  |  |  |  |  |  | 320 ± 58 | 562 ± 213 | 486 ± 202 | 77 ± 47
